Patent publication US20260198493A1, “HYDRAZIDE COMPOUND AND AGRICULTURAL/HORTICULTURAL FUNGICIDE” (Nippon Soda Co., Ltd., priority 2022, published 2026)

Key:
[1] = system: Botrytis cinerea; type: cell-based; details: 120 h, 25 ppm by volume, Vogel medium, 20° C., five days, dark, read-out: growth inhibition ratio
[2] = system: Fusarium graminearum; assay: microbe, parasite or virus in culture; type: cell-based; details: 96 h, read-out: growth inhibition ratio
[3] = system: Botrytis cinerea; assay: Control test of cucumber gray mold (sprayed young cucumber seedlings); type: in vivo; details: 96 h, four days after inoculation; for pest or weed control at 25 ppm: 25 ppm by mass spray; for pest or weed control at 125 ppm: 125 ppm by mass spray
Procedure: Then, the drug liquid was sprayed onto young cucumber seedlings cultivated in a nursery pot (variety “Jihai”-based, cotyledon stage), and then air-dried. […] They were left still in a moist room at 20° C. Four days after inoculation, leaves of the young cucumber seedlings were visually observed, and the control value was calculated from the lesion area ratio in accordance with the following equation. [formula]

[4] = system: Venturia inaequalis; assay: Control test of apple scab disease (sprayed young apple seedlings); type: in vivo; details: 125 ppm by mass spray, 12 to 14 days after inoculation
[5] = system: Erysiphe graminis f.sp.tritici; assay: Control test of wheat powdery mildew disease (sprayed young wheat seedlings); type: in vivo; details: Blumeria graminis, 144 h, 125 ppm by mass spray, six days after inoculation
[6] = system: Colletotrichum acutatum; assay: Fungicidal effect test against fungi causing apple anthracnose; details: 96 h, read-out: growth inhibition ratio
[7] = system: Glomerella cingulata; assay: Fungicidal effect test against fungi causing grape ripe rot disease; details: Colletotrichum gloeosporioides, 72 h, read-out: growth inhibition ratio

COC(=O)N(Cc1ccc(C)cc1C)NC(=O)c1cc(Br)ncc1Oc1cccc(C2CC2)c1F [b-67]
≥ 75%: inhibition of growth at 25 ppm [1] | inhibition of growth at 25 ppm [2] | pest or weed control at 25 ppm [3] | pest or weed control at 125 ppm [3] | pest or weed control at 125 ppm [4] | pest or weed control at 125 ppm [5] | inhibition of growth at 25 ppm [6] | inhibition of growth at 25 ppm [7]

COCOc1ccc(CN(NC(=O)c2cc(C)ncc2Oc2cccc(C3CC3)c2F)C(=O)OC)c(C)c1 [b-74]
≥ 75%: inhibition of growth at 25 ppm [1] | inhibition of growth at 25 ppm [2] | pest or weed control at 25 ppm [3] | pest or weed control at 125 ppm [3] | pest or weed control at 125 ppm [4] | pest or weed control at 125 ppm [5] | inhibition of growth at 25 ppm [6] | inhibition of growth at 25 ppm [7]

COC(=O)N(Cc1ccc(Cl)cc1Cl)NC(=O)c1cc(C)ncc1Oc1cccc(C2CC2)c1F [b-75]
≥ 75%: inhibition of growth at 25 ppm [1] | inhibition of growth at 25 ppm [2] | pest or weed control at 25 ppm [3] | pest or weed control at 125 ppm [3] | pest or weed control at 125 ppm [4] | pest or weed control at 125 ppm [5] | inhibition of growth at 25 ppm [6] | inhibition of growth at 25 ppm [7]

COC(=O)N(Cc1ccc(Br)cc1C)NC(=O)c1cc(C)ncc1Oc1cccc(C2CC2)c1F [b-76]
≥ 75%: inhibition of growth at 25 ppm [1] | inhibition of growth at 25 ppm [2] | pest or weed control at 25 ppm [3] | pest or weed control at 125 ppm [3] | pest or weed control at 125 ppm [4] | pest or weed control at 125 ppm [5] | inhibition of growth at 25 ppm [6] | inhibition of growth at 25 ppm [7]

COC(=O)N(Cc1ccc(Cl)cc1C)NC(=O)c1cc(C)ncc1Oc1cccc(C2CC2)c1F [b-77]
≥ 75%: inhibition of growth at 25 ppm [1] | inhibition of growth at 25 ppm [2] | pest or weed control at 25 ppm [3] | pest or weed control at 125 ppm [3] | pest or weed control at 125 ppm [4] | pest or weed control at 125 ppm [5] | inhibition of growth at 25 ppm [6] | inhibition of growth at 25 ppm [7]

COC(=O)N(Cc1ccc(C)cc1C)NC(=O)c1cc(C)nnc1Oc1cccc(C2CC2)c1 [b-80]
≥ 75%: inhibition of growth at 25 ppm [1] | inhibition of growth at 25 ppm [2] | pest or weed control at 25 ppm [3] | pest or weed control at 125 ppm [3] | pest or weed control at 125 ppm [4] | pest or weed control at 125 ppm [5] | inhibition of growth at 25 ppm [6] | inhibition of growth at 25 ppm [7]

COC(=O)N(Cc1ccc(C)cc1C)NC(=O)c1cc(C)ncc1Oc1cccc(Br)c1F [b-88]
≥ 75%: inhibition of growth at 25 ppm [1] | inhibition of growth at 25 ppm [2] | pest or weed control at 25 ppm [3] | pest or weed control at 125 ppm [3] | pest or weed control at 125 ppm [4] | pest or weed control at 125 ppm [5] | inhibition of growth at 25 ppm [6] | inhibition of growth at 25 ppm [7]

COC(=O)N(Cc1ccc(C)cc1C)NC(=O)c1c(Oc2cccc(C3CC3)c2F)nnc2ccccc12 [b-90, Methyl 2-(3-(3-cyclopropyl-2-fluorophenoxy)cinnoline-4-carbonyl)-1-(2,4-dimethylbenzyl)hydrazine-1-carboxylate]
≥ 75%: inhibition of growth at 25 ppm [1] | inhibition of growth at 25 ppm [2] | pest or weed control at 25 ppm [3] | pest or weed control at 125 ppm [3] | pest or weed control at 125 ppm [4] | pest or weed control at 125 ppm [5] | inhibition of growth at 25 ppm [6] | inhibition of growth at 25 ppm [7]

COC(=O)N(Cc1ccc(C)cc1C)NC(=O)c1cc(OC)ncc1Oc1cccc(C2CC2)c1F [b-94]
≥ 75%: inhibition of growth at 25 ppm [1] | inhibition of growth at 25 ppm [2] | pest or weed control at 25 ppm [3] | pest or weed control at 125 ppm [3] | pest or weed control at 125 ppm [4] | pest or weed control at 125 ppm [5] | inhibition of growth at 25 ppm [6] | inhibition of growth at 25 ppm [7]

COC(=O)N(Cc1ccc(OC)cc1C)NC(=O)c1c(Oc2cccc(C3CC3)c2F)nnc(Cl)c1C [b-106]
≥ 75%: inhibition of growth at 25 ppm [1] | inhibition of growth at 25 ppm [2] | pest or weed control at 25 ppm [3] | pest or weed control at 125 ppm [3] | pest or weed control at 125 ppm [4] | pest or weed control at 125 ppm [5] | inhibition of growth at 25 ppm [6] | inhibition of growth at 25 ppm [7]

COC(=O)N(Cc1ccc(OC)cc1C)NC(=O)c1cc(C)ncc1Oc1cccc(Br)c1 [b-107]
≥ 75%: inhibition of growth at 25 ppm [1] | inhibition of growth at 25 ppm [2] | pest or weed control at 125 ppm [3] | pest or weed control at 125 ppm [4] | pest or weed control at 125 ppm [5] | inhibition of growth at 25 ppm [6] | inhibition of growth at 25 ppm [7]

COC(=O)N(Cc1ccc(OC)cc1C)NC(=O)c1cc(C)ncc1Oc1cccc(Br)c1F [b-108]
≥ 75%: inhibition of growth at 25 ppm [1] | inhibition of growth at 25 ppm [2] | pest or weed control at 25 ppm [3] | pest or weed control at 125 ppm [3] | pest or weed control at 125 ppm [4] | pest or weed control at 125 ppm [5] | inhibition of growth at 25 ppm [6] | inhibition of growth at 25 ppm [7]

COC(=O)N(Cc1ccc(C)cc1C)NC(=O)c1cc(Br)ncc1Oc1cccc(Br)c1F [b-111]
≥ 75%: inhibition of growth at 25 ppm [1] | inhibition of growth at 25 ppm [2] | pest or weed control at 125 ppm [3] | pest or weed control at 125 ppm [4] | pest or weed control at 125 ppm [5] | inhibition of growth at 25 ppm [6] | inhibition of growth at 25 ppm [7]

COC(=O)N(Cc1ccc(C)cc1C)NC(=O)c1cc(C)nnc1Oc1cccc(F)c1 [b-112]
≥ 75%: inhibition of growth at 25 ppm [1] | inhibition of growth at 25 ppm [2] | pest or weed control at 125 ppm [3] | pest or weed control at 125 ppm [4] | pest or weed control at 125 ppm [5] | inhibition of growth at 25 ppm [6] | inhibition of growth at 25 ppm [7]

COC(=O)N(Cc1ccc(C)cc1C)NC(=O)c1cc(C)nnc1Oc1cccc(Cl)c1 [b-113]
≥ 75%: inhibition of growth at 25 ppm [1] | inhibition of growth at 25 ppm [2] | pest or weed control at 25 ppm [3] | pest or weed control at 125 ppm [3] | pest or weed control at 125 ppm [4] | pest or weed control at 125 ppm [5] | inhibition of growth at 25 ppm [6] | inhibition of growth at 25 ppm [7]

Cc1cccc(Oc2nnc(C)cc2C(=O)NN(Cc2ccc(C)cc2C)C(=O)O)c1 [b-117]
≥ 75%: inhibition of growth at 25 ppm [1] | inhibition of growth at 25 ppm [2] | pest or weed control at 25 ppm [3] | pest or weed control at 125 ppm [3] | pest or weed control at 125 ppm [4] | pest or weed control at 125 ppm [5] | inhibition of growth at 25 ppm [6] | inhibition of growth at 25 ppm [7]

COC(=O)N(Cc1ccc(C)cc1C)NC(=O)c1c(Br)cncc1Oc1cccc(C2CC2)c1 [b-118]
≥ 75%: inhibition of growth at 25 ppm [1] | inhibition of growth at 25 ppm [2] | pest or weed control at 25 ppm [3] | pest or weed control at 125 ppm [3] | pest or weed control at 125 ppm [4] | pest or weed control at 125 ppm [5] | inhibition of growth at 25 ppm [6] | inhibition of growth at 25 ppm [7]

COC(=O)N(Cc1ccc(C)cc1C)NC(=O)c1cc(C)nnc1Oc1csc(C(F)(F)F)c1 [b-124, Methyl 1-(2,4-dimethylbenzyl)-2-(6-methyl-3-((5-(trifluoromethyl)thiophen-3-yl)oxy)pyridazine-4-carbonyl)hydrazine-1-carboxylate]
≥ 75%: inhibition of growth at 25 ppm [1] | inhibition of growth at 25 ppm [2] | pest or weed control at 125 ppm [3] | pest or weed control at 125 ppm [4] | pest or weed control at 125 ppm [5] | inhibition of growth at 25 ppm [6] | inhibition of growth at 25 ppm [7]
